Here are results for 1 molecule from PMC5218480 (PLoS ONE, 2017).

The assay has as its system MV-4-11 cells. Briefly: Gene expression microarray analysis (Affymetrix PrimeView) and GSEA. The class given is cell-based, human. More on the design: RFU PODN (11730768_x_at) / Fold change /veh PODN (11730768_x_at) / RFU LINC00158 (11744669_a_at) / Fold change /veh LINC00158 (11744669_a_at) / RFU DUSP10 (11751237_a_at) / Fold change /veh DUSP10 (11751237_a_at) / RFU ID3 (11757404_x_at) / Fold change /veh ID3 (11757404_x_at) / RFU PLEKHG5 (11737974_s_at) / Fold change /veh PLEKHG5 (11737974_s_at) / RFU LRRC4B (11730491_at) / Fold change /veh LRRC4B (11730491_at) / RFU GIMAP4 (11747438_a_at) / Fold change /veh GIMAP4 (11747438_a_at) / RFU KRT8 (11758183_x_at) / Fold change /veh KRT8 (11758183_x_at) / RFU CNN1 (11734310_a_at) / Fold change /veh CNN1 (11734310_a_at) / RFU VPS37D (11726825_at) / Fold change /veh VPS37D (11726825_at) / RFU C10orf10 (11716522_x_at) / Fold change /veh C10orf10 (11716522_x_at) / RFU KIR2DL2 /// KIR2DL4 /// KIR2DL5A /// KIR2DL5B /// KIR2DS1 /// KIR2DS2 /// KIR2DS3 /// KIR2DS4 /// KIR3DL3 /// KIR3DL3 /// KIR3DS1 (11738374_at) / Fold change /veh KIR2DL2 /// KIR2DL4 /// KIR2DL5A /// KIR2DL5B /// KIR2DS1 /// KIR2DS2 /// KIR2DS3 /// KIR2DS4 /// KIR3DL3 /// KIR3DL3 /// KIR3DS1 (11738374_at) / RFU C1QL1 (11718748_at) / Fold change /veh C1QL1 (11718748_at) / RFU TMPRSS4 (11747572_a_at) / Fold change /veh TMPRSS4 (11747572_a_at) / RFU HAMP (11756126_x_at) / Fold change /veh HAMP (11756126_x_at) / RFU RNFT2 (11725882_a_at) / Fold change /veh RNFT2 (11725882_a_at) / RFU NR4A2 (11747474_a_at) / Fold change /veh NR4A2 (11747474_a_at) / RFU ABCC12 (11746883_a_at) / Fold change /veh ABCC12 (11746883_a_at) / RFU TMEM136 (11760407_x_at) / Fold change /veh TMEM136 (11760407_x_at) / RFU CLDN22 /// WWC2 (11732394_at) / Fold change /veh CLDN22 /// WWC2 (11732394_at) / RFU HLA-DPB1 (11760878_x_at) / Fold change /veh HLA-DPB1 (11760878_x_at) / RFU SPINT1 (11716480_a_at) / Fold change /veh SPINT1 (11716480_a_at) / RFU GAP43 (11754022_s_at) / Fold change /veh GAP43 (11754022_s_at) / RFU A4GNT (11735810_at) / Fold change /veh A4GNT (11735810_at) / RFU PRB3 (11715151_x_at) / Fold change /veh PRB3 (11715151_x_at) / RFU TUBB4B (11761932_at) / Fold change /veh TUBB4B (11761932_at) / RFU CAPN14 (11732068_a_at) / Fold change /veh CAPN14 (11732068_a_at) / RFU TMCC2 (11721928_a_at) / Fold change /veh TMCC2 (11721928_a_at) / RFU IRGQ (11745062_a_at) / Fold change /veh IRGQ (11745062_a_at) / RFU FAM174B (11720279_a_at) / Fold change /veh FAM174B (11720279_a_at) / RFU TMPRSS4 (11748680_a_at) / Fold change /veh TMPRSS4 (11748680_a_at) / RFU FAM212B (11763350_a_at) / Fold change /veh FAM212B (11763350_a_at) / RFU PLEKHG5 (11743358_a_at) / Fold change /veh PLEKHG5 (11743358_a_at) / RFU ZSCAN30 (11745921_a_at) / Fold change /veh ZSCAN30 (11745921_a_at) / RFU CMKLR1 (11741424_a_at) / Fold change /veh CMKLR1 (11741424_a_at) / RFU LOC101060620 /// MAPK8IP1 (11723275_at) / Fold change /veh LOC101060620 /// MAPK8IP1 (11723275_at) / RFU SPTSSB (11747773_x_at) / Fold change /veh SPTSSB (11747773_x_at) / RFU PRSS12 (11739890_at) / Fold change /veh PRSS12 (11739890_at) / RFU BIN1 (11741810_x_at) / Fold change /veh BIN1 (11741810_x_at) / RFU WNT11 (11732464_a_at) / Fold change /veh WNT11 (11732464_a_at) / RFU C10orf10 (11716521_a_at) / Fold change /veh C10orf10 (11716521_a_at) / RFU C5orf56 (11738089_at) / Fold change /veh C5orf56 (11738089_at) / RFU CYB561 (11721691_x_at) / Fold change /veh CYB561 (11721691_x_at) / RFU ANKRD19P (11752326_a_at) / Fold change /veh ANKRD19P (11752326_a_at) / RFU OR2T12 /// OR2T33 /// OR2T8 (11738714_s_at) / Fold change /veh OR2T12 /// OR2T33 /// OR2T8 (11738714_s_at) / RFU VCAN (11748164_a_at) / Fold change /veh VCAN (11748164_a_at) / RFU JSRP1 (11732532_at) / Fold change /veh JSRP1 (11732532_at) / RFU KRTAP10-11 (11738290_x_at) / Fold change /veh KRTAP10-11 (11738290_x_at) / RFU MYO3A (11730013_a_at) / Fold change /veh MYO3A (11730013_a_at) / RFU EBF3 (11725865_a_at) / Fold change /veh EBF3 (11725865_a_at) / RFU CAMK2N1 (11719241_x_at) / Fold change /veh CAMK2N1 (11719241_x_at) / RFU C5orf56 (11738088_a_at) / Fold change /veh C5orf56 (11738088_a_at) / RFU OLFML3 (11715873_a_at) / Fold change /veh OLFML3 (11715873_a_at) / RFU LOC100653217 /// NTM (11731650_a_at) / Fold change /veh LOC100653217 /// NTM (11731650_a_at) / RFU MAPK11 (11762145_a_at) / Fold change /veh MAPK11 (11762145_a_at) / RFU FIZ1 (11724087_x_at) / Fold change /veh FIZ1 (11724087_x_at) / RFU OASL (11726364_x_at) / Fold change /veh OASL (11726364_x_at) / RFU SOX15 (11748057_x_at) / Fold change /veh SOX15 (11748057_x_at) / RFU CD79A (11719716_a_at) / Fold change /veh CD79A (11719716_a_at) / RFU HIST1H1D (11736915_at) / Fold change /veh HIST1H1D (11736915_at) / RFU CASKIN2 (11723855_a_at) / Fold change /veh CASKIN2 (11723855_a_at) / RFU LOC730098 (11760151_x_at) / Fold change /veh LOC730098 (11760151_x_at) / RFU OR4N2 (11742367_at) / Fold change /veh OR4N2 (11742367_at) / RFU PRRT2 (11749266_a_at) / Fold change /veh PRRT2 (11749266_a_at) / RFU SNX32 (11753110_a_at) / Fold change /veh SNX32 (11753110_a_at) / RFU CDHR5 (11726645_a_at) / Fold change /veh CDHR5 (11726645_a_at) / RFU RCAN1 (11760418_a_at) / Fold change /veh RCAN1 (11760418_a_at) / RFU FAM167A (11723789_a_at) / Fold change /veh FAM167A (11723789_a_at) / RFU FAM26E (11764081_at) / Fold change /veh FAM26E (11764081_at) / RFU ISYNA1 (11749810_s_at) / Fold change /veh ISYNA1 (11749810_s_at) / RFU ACY1 (11761880_at) / Fold change /veh ACY1 (11761880_at) / RFU 11764098_at / Fold change /veh 11764098_at / RFU SAMD14 (11745864_x_at) / Fold change /veh SAMD14 (11745864_x_at) / RFU NPB (11741838_a_at) / Fold change /veh NPB (11741838_a_at) / RFU TMPRSS6 (11731388_a_at) / Fold change /veh TMPRSS6 (11731388_a_at) / RFU KRTAP10-2 (11738614_at) / Fold change /veh KRTAP10-2 (11738614_at) / RFU ARHGAP8 /// PRR5-ARHGAP8 (11727945_x_at) / Fold change /veh ARHGAP8 /// PRR5-ARHGAP8 (11727945_x_at) / RFU KRTAP5-7 /// NADSYN1 (11734609_at) / Fold change /veh KRTAP5-7 /// NADSYN1 (11734609_at) / RFU RASL12 (11751679_a_at) / Fold change /veh RASL12 (11751679_a_at) / RFU CDKN2B (11736163_a_at) / Fold change /veh CDKN2B (11736163_a_at) / RFU PRF1 (11729649_at) / Fold change /veh PRF1 (11729649_at) / RFU, ZNF638 /// ZNF638-IT1 / Fold change vs veh, ZNF638 /// ZNF638-IT1 / RFU, PANK3 / Fold change vs veh, PANK3 / RFU, SH3YL1 / Fold change vs veh, SH3YL1 / RFU, ZEB2 / Fold change vs veh, ZEB2 / RFU, NRIP1 / Fold change vs veh, NRIP1 / RFU, PTTG1IP / Fold change vs veh, PTTG1IP / RFU, CAPN2 / Fold change vs veh, CAPN2 / RFU, MED14 / Fold change vs veh, MED14 / RFU, SNORA58 / Fold change vs veh, SNORA58 / RFU, C1orf63 / Fold change vs veh, C1orf63 / RFU, LRRFIP1 / Fold change vs veh, LRRFIP1 / RFU, NDUFAF7 / Fold change vs veh, NDUFAF7 / RFU, SLC12A2 / Fold change vs veh, SLC12A2 / RFU, IBTK / Fold change vs veh, IBTK / RFU, ESF1 / Fold change vs veh, ESF1 / Fold change vs veh, TMEM50B / RFU, TAOK1 / Fold change vs veh, TAOK1 / RFU, ACBD3 / Fold change vs veh, ACBD3 / RFU, TMA16 / Fold change vs veh, TMA16 / RFU, RWDD3 / Fold change vs veh, RWDD3 / RFU, BCAT1 / Fold change vs veh, BCAT1 / RFU, EDEM3 / Fold change vs veh, EDEM3 / RFU, TMEM33 / Fold change vs veh, TMEM33 / RFU, WDR75 / Fold change vs veh, WDR75 / RFU, AHCTF1 / Fold change vs veh, AHCTF1 / RFU, TFRC / Fold change vs veh, TFRC / RFU, ZDHHC17 / Fold change vs veh, ZDHHC17 / RFU, NOM1 / Fold change vs veh, NOM1 / RFU, ARL8B / Fold change vs veh, ARL8B / RFU, ZBTB11 / Fold change vs veh, ZBTB11 / RFU, TAMM41 / Fold change vs veh, TAMM41 / RFU, KIAA1704 /// LOC100996395 / Fold change vs veh, KIAA1704 /// LOC100996395 / RFU, ING1 / Fold change vs veh, ING1 / RFU, TRMT61B / Fold change vs veh, TRMT61B / RFU, FUBP3 / Fold change vs veh, FUBP3 / RFU, TP53 / Fold change vs veh, TP53 / RFU, TNKS2 / Fold change vs veh, TNKS2 / RFU, ZFP14 / Fold change vs veh, ZFP14 / RFU, ACTR2 / Fold change vs veh, ACTR2 / RFU, PPP3R1 / Fold change vs veh, PPP3R1 / RFU, PIK3R1 / Fold change vs veh, PIK3R1 / RFU, HNRNPA1 / Fold change vs veh, HNRNPA1 / RFU, RNF170 / Fold change vs veh, RNF170 / RFU, ZNF28 / Fold change vs veh, ZNF28 / RFU, RNGTT / Fold change vs veh, RNGTT / RFU, OGT / Fold change vs veh, OGT / RFU, BRD1 / Fold change vs veh, BRD1 / RFU, MARS / Fold change vs veh, MARS / RFU, ZNF655 / Fold change vs veh, ZNF655 / RFU, FAHD1 / Fold change vs veh, FAHD1 / RFU, BDP1 / Fold change vs veh, BDP1 / RFU, LRRCC1 / Fold change vs veh, LRRCC1 / RFU, ARID1A / Fold change vs veh, ARID1A / RFU, ZNF146 / Fold change vs veh, ZNF146 / RFU, ZNF330 / Fold change vs veh, ZNF330 / RFU, GPN3 / Fold change vs veh, GPN3 / RFU, C9orf123 / Fold change vs veh, C9orf123 / RFU, N4BP2L2 / Fold change vs veh, N4BP2L2 / RFU, ARFIP1 / Fold change vs veh, ARFIP1 / RFU, FAM179B / Fold change vs veh, FAM179B / RFU, BCL10 / Fold change vs veh, BCL10 / RFU, UHRF1BP1L / Fold change vs veh, UHRF1BP1L / RFU, BET1 / Fold change vs veh, BET1 / RFU, CNOT2 / Fold change vs veh, CNOT2 / RFU, ZNF268 / Fold change vs veh, ZNF268 / Fold change vs veh, ZNF507 / RFU, DGCR2 / Fold change vs veh, DGCR2 / RFU, WDSUB1 / Fold change vs veh, WDSUB1 / Fold change vs veh, HSP90B1 /// MIR3652 / RFU, ADSS / Fold change vs veh, ADSS / RFU, GK / Fold change vs veh, GK / RFU, ZNF148 / Fold change vs veh, ZNF148 / RFU, TAF9 / Fold change vs veh, TAF9 / RFU, SLC1A5 / Fold change vs veh, SLC1A5 / RFU, SLMO2 / Fold change vs veh, SLMO2 / RFU, ABCC4 / Fold change vs veh, ABCC4 / RFU, LOC101060439 /// RAP1B / Fold change vs veh, LOC101060439 /// RAP1B / RFU, RFX7 / Fold change vs veh, RFX7 / RFU, GTPBP10 / Fold change vs veh, GTPBP10 / RFU, CNEP1R1 / Fold change vs veh, CNEP1R1 / RFU, BIVM-ERCC5 /// ERCC5 / Fold change vs veh, BIVM-ERCC5 /// ERCC5 / RFU, ILF3 / Fold change vs veh, ILF3 / RFU 11762660_at / Fold change /veh 11762660_at / RFU VCAN (11757783_s_at) / Fold change /veh VCAN (11757783_s_at) / RFU DDX43 (11728927_at) / Fold change /veh DDX43 (11728927_at) / RFU KRT8 (11758188_x_at) / Fold change /veh KRT8 (11758188_x_at) / RFU NKD1 (11759106_at) / Fold change /veh NKD1 (11759106_at) / RFU SRD5A1 (11742802_a_at) / Fold change /veh SRD5A1 (11742802_a_at) / RFU TPSAB1 /// TPSB2 (11721975_s_at) / Fold change /veh TPSAB1 /// TPSB2 (11721975_s_at) / RFU GSTM3 (11746129_a_at) / Fold change /veh GSTM3 (11746129_a_at) / RFU IL23R (11737362_x_at) / Fold change /veh IL23R (11737362_x_at) / RFU TMEM51 (11727254_a_at) / Fold change /veh TMEM51 (11727254_a_at) / RFU PIWIL2 (11732686_x_at) / Fold change /veh PIWIL2 (11732686_x_at) / RFU ORM1 (11744905_x_at) / Fold change /veh ORM1 (11744905_x_at) / RFU CCDC152 (11743942_at) / Fold change /veh CCDC152 (11743942_at) / RFU ECM1 (11717891_a_at) / Fold change /veh ECM1 (11717891_a_at) / RFU IL23R (11748794_a_at) / Fold change /veh IL23R (11748794_a_at) / RFU TNFAIP8L3 (11732012_x_at) / Fold change /veh TNFAIP8L3 (11732012_x_at) / RFU MBOAT4 (11741988_at) / Fold change /veh MBOAT4 (11741988_at) / RFU 11764193_at / Fold change /veh 11764193_at / RFU TMEM53 (11763286_at) / Fold change /veh TMEM53 (11763286_at) / RFU MAGEB2 (11727129_at) / Fold change /veh MAGEB2 (11727129_at) / RFU TMEM200A (11744735_a_at) / Fold change /veh TMEM200A (11744735_a_at) / RFU CCDC152 (11751479_a_at) / Fold change /veh CCDC152 (11751479_a_at) / RFU FAM211A (11726209_a_at) / Fold change /veh FAM211A (11726209_a_at) / RFU RGS16 (11746705_a_at) / Fold change /veh RGS16 (11746705_a_at) / RFU VCAN (11755009_s_at) / Fold change /veh VCAN (11755009_s_at) / RFU RHOB (11743442_s_at) / Fold change /veh RHOB (11743442_s_at) / RFU RGS16 (11720943_a_at) / Fold change /veh RGS16 (11720943_a_at) / RFU RGS16 (11720944_at) / Fold change /veh RGS16 (11720944_at) / RFU, VPS4B / Fold change vs veh, VPS4B / RFU, CREB1 / Fold change vs veh, CREB1 / RFU, DNAJC13 / Fold change vs veh, DNAJC13 / RFU, GNAQ / Fold change vs veh, GNAQ / RFU, CDK5R1 / Fold change vs veh, CDK5R1 / RFU, ZRANB3 / Fold change vs veh, ZRANB3 / RFU, CUL4A / Fold change vs veh, CUL4A / RFU, CCNY / Fold change vs veh, CCNY / RFU, UFL1 / Fold change vs veh, UFL1 / RFU, COG3 / Fold change vs veh, COG3 / RFU, DIAPH2 / Fold change vs veh, DIAPH2 / RFU, SKA2 / Fold change vs veh, SKA2 / RFU, AFF3 / Fold change vs veh, AFF3 / RFU, LMF1 / Fold change vs veh, LMF1 / RFU, IPO11 / Fold change vs veh, IPO11 / RFU, DFFB / Fold change vs veh, DFFB / RFU, FOXP1 / Fold change vs veh, FOXP1 / RFU, CARD8 / Fold change vs veh, CARD8 / RFU, STRN3 / Fold change vs veh, STRN3 / RFU, ADK / Fold change vs veh, ADK / RFU, RASSF2 / Fold change vs veh, RASSF2 / RFU, WIPF1 / Fold change vs veh, WIPF1 / RFU, LARP1B / Fold change vs veh, LARP1B / RFU, RASA1 / Fold change vs veh, RASA1 / RFU, RB1 / Fold change vs veh, RB1 / RFU, PPFIA1 / Fold change vs veh, PPFIA1 / RFU, MAT2A / Fold change vs veh, MAT2A / RFU, CCT5 / Fold change vs veh, CCT5 / RFU, WDR92 / Fold change vs veh, WDR92 / RFU, CUX1 / Fold change vs veh, CUX1 / RFU, TTC7A / Fold change vs veh, TTC7A / RFU, TMEM135 / Fold change vs veh, TMEM135 / RFU, DEPTOR / Fold change vs veh, DEPTOR / RFU, CPM / Fold change vs veh, CPM / RFU, DNAJB6 / Fold change vs veh, DNAJB6 / RFU, CACNA2D3 / Fold change vs veh, CACNA2D3 / RFU, DTX4 / Fold change vs veh, DTX4 / RFU, TFCP2 / Fold change vs veh, TFCP2 / RFU, GMCL1 /// GMCL1P1 / Fold change vs veh, GMCL1 /// GMCL1P1 / RFU, AEBP2 / Fold change vs veh, AEBP2 / RFU, SNHG1 /// SNORD22 /// SNORD25 /// SNORD26 /// SNORD27 /// SNORD28 /// SNORD29 /// SNORD31 / Fold change vs veh, SNHG1 /// SNORD22 /// SNORD25 /// SNORD26 /// SNORD27 /// SNORD28 /// SNORD29 /// SNORD31 / Fold change (Aza/veh), C12orf56 (ProbeSet 11735607_a_at) / Fold change (ACY-1035/veh), C12orf56 (ProbeSet 11735607_a_at) / Fold change (Aza/veh), FGFR1OP (ProbeSet 11751329_s_at) / Fold change (ACY-1035/veh), FGFR1OP (ProbeSet 11751329_s_at) / Fold change (Aza/veh), VPS36 (ProbeSet 11739960_a_at) / Fold change (ACY-1035/veh), VPS36 (ProbeSet 11739960_a_at) / RFU SYPL1 (11715823_x_at) / Fold change /veh SYPL1 (11715823_x_at) / RFU IGFBP7 (11715501_s_at) / Fold change /veh IGFBP7 (11715501_s_at) / RFU REEP3 (11722064_at) / Fold change /veh REEP3 (11722064_at) / RFU IGLL1 (11728026_x_at) / Fold change /veh IGLL1 (11728026_x_at): dose or concentration left out as unconfirmed. The settings on record: MV-4-11 cells, 48 hours.

With `Nc1ncn([C@@H]2O[C@H](CO)[C@@H](O)[C@H]2O)c(=O)n1` [azacitidine], the “RFU MAPK11 (11762145_a_at)” value turned out to be 24.54 RFU.
